Here are results for one molecule from patent US12576051B2, “Methods and composition for treating respiratory obstructive diseases” (The Regents of the University of California, priority 2019, dated 2026).

In assay [1] the test system is porcine airway. As to the kind of experiment: Ex vivo porcine airway models (summary statement). An excerpt: Abnormal mucus accumulation in airways has deleterious, and fatal consequence in patients suffering from respiratory obstructive diseases, such as cystic fibrosis (CF), COPD and asthma. Therefore, there is a need for therapies aimed at decreasing mucus accumulation to facilitate airway mucus clearance.

Assay [2] has as its system porcine gastric mucin extract (50 kDa band matched to Muc5ac mucin). The experiment in a line: Mucolytic activity on gastric mucin (electrophoresis, Coomassie stain). The assay is classed as biochemical. Particulars: summary of FIG. 7 and FIG. 8. The protocol: FIG. 7 presents the effects of cysteamine bitartrate and compound 646 on porcine gastric mucin extract. One hundred microliters of gastric mucin extract (5 mg/mL) was incubated with and without cysteamine bitartrate and compound 646 separately, at 37° C. for 60 minutes.
Gastric Mucin extract solution: Mucin was prepared as stock solution of 5 mg/mL in water, in NaCl Ringer (150 mM Na^+, 4.6 mM K^+, 1 mM Ca^2+, 1 mM Mg^2+, 150 mM Cl^−, 2.5 mM PO4^x− and 10 mM glucose) pH 7.2, and in HCO3-Ringer solution (150 mM Na^+, 4.6 mM K^+, 1 mM Ca^2+, 1 mM Mg^2+, […] HCO3^−, 2.5 mM PO4^x− and 10 mM glucose) pH 8.
Mucolytic activity on gastric mucin. One hundred microliters of mucin solution were incubated with Cysteamine bitartrate or compound 646 at final concentrations from 0 to 2 mM as indicated in the text. Mixture was incubated at 37° C. for 0-1 hr. Mucolytic activity was ended with 30 microliters of SDS-sample buffer solution. Forty-five microliters of each sample/well were separated in an electrophoresis gel 4-12% Tris-Glycine. After electrophoresis gels were stained with Coomassie Blue solution.
In vitro mucolytic activity of cysteamine bitartrate and compound 646. To evaluate the mucolytic activity of cysteamine bitartrate and 2-aminoethane-1-d-1-thiol hydrochloride (Compound 646), gastric mucin extract was used as a substrate that was treated with 200 and 400 μM of cysteamine bitartrate or Compound 646 respectively.
Mass spectrometry analysis of the isolated 50 kDa protein band. Muc5ac and Muc6 mucins are two major secretory mucins found in the stomach. In order identify which of these mucins were part of the 50 kDa band, mass spectrometry was utilized. Mass spectrometry analysis of the 50 kDa protein band identified 17 unique peptides that matched with porcine Muc5ac mucin.

Assay [3] concerns mucin released over the luminal airway surface. The experiment in a line: Mucin clearance on surface airway epithelium of isolated porcine airways (histology). Particulars: 200 μM, 5 min, after bicarbonate (25 mM) and PGE2 (10 μM) 5 min at 37° C. Here is the method: Cysteamine facilitates clearance of mucin released over the luminal airway surface. Porcine airways were incubated in the presence of buffer containing bicarbonate (25 mM) and PGE2 (10 μM) for 5 min at 37° C. Thereafter, airways were subsequently incubated in the presence or absence of Cysteamine (200 μM) for an additional 5 min. Airways, were harvested and processed for histological analysis.
(§1) Biological specimens: Isolated native porcine airways were used as experimental model. Sections of open trachea tissue (approx. 2 cm^2) were carefully rinsed and cover small volume of NaHCO3-Ringer solution. Mucus secretion was stimulated with Prostaglandin E2 (PGE2, 10−6 M). Secreted mucus over the dissected open airways was carefully collected, aliquoted and immediately frozen at −80° C.

Assay [4] concerns mucin extracted from porcine guts. The experiment in a line: Effects of cysteamine at nM concentrations on mucin extracted from porcine guts. In kind it is biochemical. Particulars: FIG. 11. From the text:
FIG. 11 showing the effects of cysteamine at nM concentrations, on mucin extracted from porcine guts.

Assay [5] deals with porcine airway mucus. As to the kind of experiment: Mucolytic activity on porcine airway mucin (electrophoresis, Coomassie stain). In kind it is biochemical. The following applies: summary of FIG. 10. The protocol:
FIG. 9 presents the effect of compound 646 on porcine airway mucus. Mucus collected from porcine upper airways diluted in NaHCO3-Ringer, was treated with different concentrations of compound 646 (0, 0.25. 0.5 and 1 mM), for 60 minutes at 37° C. In lane 1, representative protein pattern after electrophoresis protein separation of untreated porcine airway mucus (40 μg/well).
Airway mucus supernatant diluted in NaHCO3-Ringer was treated with or without cysteamine bitartrate under basic and acidic conditions at 37° C. for 60 minutes.
as §1
Mucolytic activity on porcine airway mucin: One hundred microliters of collected porcine airway supernatant was incubated with Cysteamine bitartrate or compound 646 at final concentrations from 0 to 2 mM as indicated in the text. Mucolytic activity was ended with 30 microliters of SDS-sample buffer solution. 45 microliters of each sample/well were separated in an electrophoresis gel 4-12% Tris-Glycine. After electrophoresis gels were stained with Coomassie Blue solution.
Mucolytic activity of synthetic compound 646. Respiratory airway mucus contained Muc5aC and Muc5B mucins. In order to determine whether compound 646 be used as a mucolytic agent for respiratory airways, supernatant of mucus collected from porcine airways was treated with compound 646 at different concentration (0-1 mM) for 1 h at 37° C.
Mucolytic activity of cysteamine bitartrate under basic and acidic conditions. To validate whether mucolytic activity of cysteamine bitartrate depends on changes of pH, airway mucus supernatant was incubated for 1 h at 37° C. with or without 2 mM cysteamine bitartrate diluted in NaHCO3. An additional airway mucus sample was treated with cysteamine bitartrate and supplemented with 4 μL of 0.1 N of acetic solution pH 4.5. […] The reduction, however, was approximately half of the decrease seen under acidic conditions.

The subject of assay [6] is Porcine mucin 15% (W/V). The experiment in a line: Mucolytic activity: mucin viscosity by volume displaced through Pasteur pipette. The assay is classed as biochemical. Particulars: 10 mg/mL, Ringer buffer with bicarbonate (25 mM), 4 hours at 37° C.; versus without cysteamine. Here is the method:
Porcine mucin 15% (W/V) was incubated in Ringer buffer solution containing bicarbonate (25 mM) in the presence (+) or absence (−) of Cysteamine bitartrate (10 mg/mL), for 4 h at 37° C. Thereafter, equal volume of mucin solution from each condition were aspirated separately in a sterile Pasteur pipette. Changes in mucin viscosity was measured by the rapidity of the volume displaced toward the bottom of the pipette, as indicated in each panel (0-12 seconds). […] Porcine mucin 15% (W/V) was incubated in Ringer buffer solution containing bicarbonate (25 mM) in the presence (+) or absence (−) of cysteamine bitartrate (10 mg/mL), for 4 hours at 37° C. Changes in mucin viscosity was determined by the percentage of volume displaced as a function of time (0-12 seconds) through a vertical sterile Pasteur pipette tip at room temperature.

In the case of `NCCS` [Cysteamine bitartrate, reference compound], the “accumulation of viscous mucus and mucociliary clearance” value in assay [1] is “prevented accumulation of viscous mucus and improves mucociliary clearance”. Moreover, the “anti-mucin effect against gastric mucin, Muc5ac in particular” value in assay [2] is “anti-mucin effect against gastric mucin”. The “mucin clearance on airway surface epithelium” value in assay [3] is on record as “cleared from the luminal surface”. The “dose dependence of mucolytic effect” value in assay [4] is listed as “dose dependent”. In addition, the “influence of acidic conditions on mucolytic effect” value in assay [5] is listed as “enhanced when acidic conditions are used”. Also, the “displaced volume percentage of porcine mucin as a function of time (0-12 seconds)” value in assay [6] is “noticeably reduced”.
